Patent US20130274104A1, “AGROCHEMICAL MIXTURES FOR INCREASING THE HEALTH OF A PLANT” (BASF SE, priority 2010, published 2013)

What was measured:
Type in all cases: in vivo
[1] = tested on: Soybeans; assay: Soybean field trials 2009, grain yield as indicator of plant health
Experimental: (§1) Soybeans were grown in 2009 at eight locations in the U.S.A.: Jefferson, I A, Seymour, Ill., Sparta, Ill., Wyoming, Ill., Sheridan, Ind., Ozora, Mo., York, Nebr., and Centerville, S. Dak. The soybeans were planted at the local standard seeding rate with local standard row spacing. Each trial was setup as randomized complete block design with 6 replications. Plots consisted of 4 rows with the center two rows treated and harvested. Harvested plot size was minimum 15 m^2.
The active ingredients were used as formulations. The formulations were used in the dose rates given below. The products were applied when the soybeans had developed four to six trifoliates.
The mixture comprising pyraclostrobin and harpinαβ as shown in table 2 below was applied as a tankmix of both formulations.
Grain yield (kg per ha) was assessed as an indicator of plant health (table 2) by harvesting the plants in the center rows of a plot. The efficacy was calculated as % increase of yield in the treatments compared to the untreated control:
(§2) E=a/b−1•100 • a corresponds to the grain yield of the treated plants in kg/ha and • b corresponds to the grain yield of the untreated (control) plants in kg/ha

[2] = tested on: Soybeans; assay: Soybean leaf chlorophyll content, FIELD SCOUT CM1000 chlorophyll meter, Sparta, Ill.; conditions: Harpinαβ 70 g/ha, Pyraclostrobin 0.44 l/ha
Experimental: as §1
The active ingredients were used as formulations. The formulations were used in the dose rates given below. The products were applied when the soybeans had developed four to six trifoliates. Pyraclostrobin (compound A) was applied once as HEADLINE® (250 g active per liter; EC formulation) with a product rate of 0.44 I/ha.
The harpinαβ peptide (compound B) was applied as the experimental WG formulation EBC-351 (1% active ingredient) with a product rate of 70 g/ha. The mixture comprising pyraclostrobin and harpinαβ as shown in table 2 below was applied as a tankmix of both formulations.
At the Sparta, Ill., location, the chlorophyll content (a well known indicator of the health of a plant) of 5 plants in a plot was measured with a FIELD SCOUT CM1000™ (Spectrum Technologies, Plainfield, Ill.) chlorophyll meter. Values were reported as a mean value per plot. The FIELD SCOUT CM1000™ senses light at wavelengths of 700 nm and 840 nm to estimate quantity of chlorophyll in leaves. The ambient and reflected light at each wavelength is measured. Light absorbtion at 700 nm by chlorophyll reduces the reflection at this wavelength whereas the light at 840 nm is unaffected and serves as an indication of light reflection due to physical characteristics of the leaf like a hairy leaf surface. Subsequently, a chlorophyll index value (0-999) is calculated from the measured ambient and reflected light data.
Based on the index values the efficacy of the treatments were calculated as described for the grain yield above. Similarly, the expected efficacy was estimated using Colby's formula as described above.

[3] = tested on: Maize (corn); assay: Maize field trials 2009, grain yield as indicator of plant health; conditions: BBCH 55/57; for Yield (kg/ha): seven US locations
Experimental: Maize (corn) was grown in 2009 at seven locations in the U.S.A: Wyoming, Ill., Carlyle, Ill., Sparta, Ill., Manilla, Iowa, Blue Earth, Minn., Aurora, Nebr., and Tekamah, Nebr. The maize crop was planted at the local standard seeding rate with local standard row spacing. Each trial was set up as randomized complete block design with 8 replications. Plots consisted of 6-8 rows with the center two rows treated and harvested. Harvested plot size was at minimum 18.48 m^2.
The active ingredients were used as formulations. The formulations were used in the dose rates given below. The products were applied at tassel emergence (BBCH 55/57). […] The untreated control plots were treated with water only.
Grain yield (kg per ha) as an indicator for the health of a plant was assessed by harvesting the plants in the center rows of a plot (table 1). The efficacy was calculated as % increase of yield in the treatments compared to the untreated control using the following formula:
as §2

With `COC(=O)N(OC)c1ccccc1COc1ccn(-c2ccc(Cl)cc2)n1` [Pyraclostrobin] the “OE [%] (Observed efficacy, % increase of yield compared to the untreated control)” value ([1]; Harpinαβ 70 g/ha, Pyraclostrobin 0.44 l/ha, average of all trials) was 0.1%, the “effect on grain yield, in words” value ([1]; Pyraclostrobin 0.44 l/ha applied at early soybean development) was “did not increase the grain yield on an average” and the “Yield (kg/ha)” value ([1]; product rates Harpinαβ 70 g/ha (1%), Pyraclostrobin 0.44 l/ha (250 g/l), four to six trifoliates, eight US locations) was 3319 kg/ha. The “effect on leaf chlorophyll content, in words” value [2] was “increases the chlorophyll content”, the “OE [%] (Observed efficacy, chlorophyll index compared to the untreated control)” value ([2]; Sparta, Ill.) was 14.13% and the “CC [0-999] (Chlorophyll Content, chlorophyll index value)” value ([2]; Sparta, Ill., mean value per plot, 5 plants) was 773.50. For the same compound, the “OE [%] (Observed efficacy, % increase of yield compared to the untreated control)” value ([3]; Harpinαβ 35 g/ha, Pyraclostrobin 0.3 l/ha, alone or combined) was 1.10%, the “OE [%] (Observed efficacy, % increase of yield compared to the untreated control)” value ([3]; Pyraclostrobin 0.6 l/ha, Harpinαβ 35 g/ha in the combination) was 0.10% and the “Yield (kg/ha)” value ([3]; product rates Harpinαβ 35 g/ha (1%), Pyraclostrobin 0.3 l/ha (250 g/l), alone or combined) was 13218.9 kg/ha. For the same compound, the “Yield (kg/ha)” value ([3]; product rates Pyraclostrobin 0.6 l/ha (250 g/l), Harpinαβ 35 g/ha (1%) in the combination) was 13087.1 kg/ha.
